Patent US20120004180A1, “METHOD OF PRODUCING A NOVEL OPIOID PEPTIDE” (priority 2008, published 2012)

Experiments:
[1] = tested on: pain; details: experiments on animals; intrathecal application in rats; cited from earlier work
[2] = tested on: physical dependence; details: compared with morphine; cited from earlier work
[3] = tested on: thermal pain; assay: Thermal pain sensitivity after subarachnoid administration via cannula; format: in vivo; details: rats, dose of 5 mg
Excerpt: Two days prior to the experiments, rats were implanted with cannulae into the subarachnoid cavity. During the experiment, the analgesic activity was examined by administering the peptide analogue (N′-Tyrosyl-D-alanyl-glycyl-phenylalanyl, N″-alpha-methyl-4-(2-methylpropyl) benzenoacetyl-D-tryptophanyl)-hydrazide.

[4] = tested on: acute pain in mice with inflammation; assay: Tail immersion in water heated to 55° C. in murine melanoma metastasis model with inflammation; format: in vivo; details: two weeks after murine melanoma cells into the hind limb, intraperitoneal injection 30 mg/kg
Description: In an animal metastasis model, inflammation was induced by administering around a million cells of murine melanoma into the hind limb. After two days, a progressing inflammation was observed, elicited by tumour take. After two weeks of tumour development, the analgesic activity of (N′-Tyrosyl-D-alanyl-glycyl-phenylalanyl, N″-salicyl-glycyl-D-tryptophanyl)-hydrazide was examined against acute pain caused by tail immersion in water heated to 55° C.

[5] = tested on: acute pain in mice with inflammation; assay: Tail immersion in water at 55° C. in mice with Freund's adjuvant-induced inflammation; format: in vivo; details: one week after Freund's adjuvant into the limb, intravenous injection 20 mg/kg
Description: Inflammation was induced in mice through application of Freund's adjuvant into the limb. A progressing inflammation was observed after two days. After a week, the analgesic effects on acute pain of the peptide analogue HCl.Tyr-D-Ala-Gly-Phe-NHNH-(CBz-D-Trp-) were examined via the immersion of the tail in water at 55° C.

C[C@@H](NC(=O)[C@@H](N)Cc1ccc(O)cc1)C(=O)NCC(=O)N[C@@H](Cc1ccccc1)C(=O)NNC(=O)[C@H](Cc1ccccc1)NC(=O)CNC(=O)[C@@H](C)NC(=O)[C@@H](N)Cc1ccc(O)cc1 [biphalin]
analgesic activity [1]: significant analgesic activity
habit-forming activity (physical dependence) [2]: much lesser habit-forming activity

(N′-Tyrosyl-D-alanyl-glycyl-phenylalanyl, N″-alpha-methyl-4-(2-methylpropyl) benzenoacetyl-D-tryptophanyl)-hydrazide [Example III]
duration of elimination of sensitivity to thermal pain [3]: 1 h
sensitivity to thermal pain [3]: complete elimination

(N′-Tyrosyl-D-alanyl-glycyl-phenylalanyl, N″-salicyl-glycyl-D-tryptophanyl)-hydrazide [Example II]
pain reaction (analgesic activity against acute pain, tail immersion) [4]: completely mitigated

(N′-tyrosyl-D-alanyl-glycyl-phenylalanyl, N″-benzoxycarbonyl-D-tryptophanyl) hydrazide [Example I]
pain reaction (analgesic effect on acute pain, tail immersion) [5]: completely mitigated
